Values after ≈ are worked out from the molar mass of the structure shown. Values joined by “and” are separate entries in the source; they are usually repeats but may differ in a detail not shown here. Equal values may be shown once. “Also recorded” adds a separate entry of the source. Read-outs that look alike come from different tables or passages of the source.
Legend:
[1] = system: P. falciparum strain 3D7-Netherlands; assay: In vitro IC50, 3H-hypoxanthine incorporation, P. falciparum 3D7; assay type: cell-based, Plasmodium falciparum; details: Plasmodium falciparum
[2] = system: Plasmodium falciparum strain K1; assay: In vitro IC50, 3H-hypoxanthine incorporation, P. falciparum K1; assay type: cell-based; details: chloroquine-resistant Plasmodium falciparum strain K1
[3] = system: L929; assay: Antiproliferative activity L929; assay type: cell-based; details: Mus musculus, read-out: IC50 [μg/ml] Antiproliferative activity L929
[4] = system: K562; assay: Antiproliferative activity K562; assay type: cell-based; details: Homo sapiens, read-out: IC50 [μg/ml] Antiproliferative activity K562
[5] = system: Plasmodium berghei GFP MRA-865; assay: Plasmodium berghei infection in the mouse model (in vivo); details: for Activity (%): parasitemia day 4 vs untreated controls
[6] = Cytotoxicity HeLa; details: human, HeLa cells
[7] = system: adult S. mansoni; assay: In vitro treatment of adult S. mansoni couples, visual evaluation by microscope; parameters: species or system Schistosoma mansoni
Procedure: Compounds 2, 18 and 41 were tested by Prof. Dr. Grevelding, Parasitology, Veterinary Medicine, University of Gieβen, also in the parasite Schistosoma mansoni. […] Each test was performed with 3 groups of 10 worms each. Remarkable was that different effects on the worms with respect to morphological alterations could be observed. […] Exemplarily shown in FIGS. 1 and 2 is an image of a control assay and an image of trematodes after 48 hours of incubation with compound 18.
Each one of the three groups (one group per well) comprised 10 pairs of adult S. mansoni were incubated with the substance to be tested for 24 h. As control served three groups which were incubated with medium (M199) and three groups which were incubated with medium and DMSO as solvent of the test substances. Evaluation was done visually using a microscope.
In a second experimental setting, again three groups each (one group per well) with 8 pairs of adult S. mansoni each were incubated with the compound to be tested, however for 48 h in this experiment. As control served three groups which were either incubated with medium (M199) or medium and DMSO as solvent of the test substances. Evaluation was done visually using a microscope.

[8] = system: Trypanosoma brucei brucei S427; assay: In vitro efficacy against Trypanosoma brucei; assay type: cell-based
Procedure: Compounds 18 and 41 were assessed at the London School of Hygiene and Tropical Medicine in vitro with respect to their efficacy against the parasite Trypanosoma brucei brucei […].

[9] = P. falciparum strain 3D7, read-out: IC50 [nM] P.f.(3D7)

Compound COc1ccc2c(c1)CCC1C2CC[C@@]2(C)C1CC[C@@H]2NCc1ccccc1O (stereo partly drawn) [Compound 1, 17β-(2-Hydroxyphenyl-methylamino)-3-methoxy-estra-1,3,5(10)-triene] has an IC50 [1, 9] of 50 nM, an IC50 ([1]; P. falciparum strain 3D7, read-out: IC50 [ng/ml] P.f.(3D7)) of 19.8 ng/mL and an IC50 [2] of 73 nM. For the same compound, the IC50 [3] was 2.2 µg/mL (≈ 5.62 µM), the IC50 [4] was 0.8 µg/mL (≈ 2.04 µM) and the “life span in words” value ([5]; all dosages and routes of administration tested) was “considerably extended the life span”. For the same compound, the “MSD (days)” value ([5]; oral 3 × 100 mg/kg) was 16.3 (n = 3) days, the “Activity (%)” value ([5]; oral 3 × 100 mg/kg) was 99% and the “MSD (days)” value ([5]; sc 3 × 10 mg/kg) was 10.2 (n = 3) days. The “Activity (%)” value ([5]; sc 3 × 10 mg/kg) was 47%, the “MSD (days)” value ([5]; sc 3 × 30 mg/kg) was 15 (n = 3) days and the “Activity (%)” value ([5]; sc 3 × 30 mg/kg) was 94%. The IC50 [6] was 11 µM and 4.3 µg/mL.
In the case of COc1ccc2c(c1)CCC1C2CC[C@@]2(C)C1CC[C@H]2NCc1cc2ccccc2cc1O (stereo partly drawn) [Compound 41, 17α-[(3-Hydroxy-naphth-2-yl)-methylamino]-3-methoxy-estra-1,3,5(10)-triene], the IC50 ([1]; 3D7, read-out: IC50 [ng/ml] P.f.(3D7)) is reported as 1.9 ng/mL, the IC50 [1, 9] is reported as 4.4 nM and the “morphological alterations of the worms” value [7] is reported as “dorsal bending”. The egg production ([7]; 24 hours, 20 μM) was “Almost no eggs could be detected; also recorded: Almost no eggs were detectable”, the motility / vitality ([7]; 24 hours, 20 μM) was “Males barely moved and showed only twitching; also recorded: Trematodes moved only slightly and with twitching movements” and the egg production ([7]; 24 hours, 100 μM) was “Almost no eggs could be detected”. The motility / vitality ([7]; 24 hours, 100 μM) was “Males showed almost no motility”, the couples detectable ([7]; 24 hours, 100 μM, 3 groups of 10 pairs) was “only in one of the groups a couple was detectable” and the egg production ([7]; 48 hours, 20 μM) was “No eggs were produced”. The motility / vitality ([7]; 48 hours, 20 μM) was “Single trematodes showed slightly twitching movements, while the rest was non-motile”, the couples detectable ([7]; 48 hours, 20 μM, 3 groups of 8 pairs) was “no couples could be observed in any of the groups” and the egg production ([7]; 48 hours, 100 μM) was “No eggs were detectable”. For the same compound, the motility / vitality ([7]; 48 hours, 100 μM) was “Some of the worms were already dead, while others were dying”, the couples detectable ([7]; 48 hours, 100 μM, 3 groups of 8 pairs) was “no couples could be observed in any of the groups” and the IC50 [8] was 3580 nM.
